Assays:
Experiment in all cases: relative viability (nuclei count vs DMSO), 5 days (fraction); higher = more cells survive
[1] = compound: COc1cc2/c(=N/c3ccc(Br)cc3F)nc[nH]c2cc1OCC1CCN(C)CC1 [Vandetanib] + O=C(c1cc(Cc2n[nH]c(=O)c3ccccc23)ccc1F)N1CCN(C(=O)C2CC2)CC1 [Olaparib] (partner 8 µM)
In short: (§1)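 Relative viability equals treated-well nuclei counts divided by vehicle-well nuclei counts. Counts came from 4× images of lung cancer cell lines grown in 1536-well plates for 5 days after pin-tool dosing on the day after seeding. Dosing used one drug alone or a fixed anchor-drug dose plus five library-drug doses (not always all listed) in √10 steps, and values are medians of duplicate plates.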

[2] = compound: C1=CC=C2C(=C1)N=C(S2)C(C#N)C3=NC(=NC=C3)NCCC4=CN=CC=C4 + Cc1nc(Nc2ncc(C(=O)Nc3c(C)cccc3Cl)s2)cc(N2CCN(CCO)CC2)n1 [Dasatinib] (partner 0.075 µM)
In short: as §1

[3] = compound: COc1cc2/c(=N/c3ccc(Br)cc3F)nc[nH]c2cc1OCC1CCN(C)CC1 [Vandetanib] + COc1cccc2cc(-c3nc([C@H]4CC[C@H](C(=O)O)CC4)n4ncnc(N)c34)[nH]c12 [OSI-027] (partner 0.5 µM)
In short: as §1

[4] = compound: C#Cc1cccc(Nc2ncnc3cc(OC)c(OCCCCCCC(=O)NO)cc23)c1 [CUDC-101] + C[C@]1(O)C[C@@H](c2nc(-c3ccc4ccc(-c5ccccc5)nc4c3)c3c(N)nccn32)C1 [Linsitinib] (partner 1 µM)
In short: as §1

Cell Line	relative viability ([1]; first compound 0.02 µM)	relative viability ([1]; first compound 0.06325 µM)	relative viability ([1]; first compound 0.2 µM)	relative viability ([1]; first compound 0.6325 µM)	relative viability ([1]; first compound 2 µM)	relative viability ([2]; first compound 0.005 µM)	relative viability ([2]; first compound 0.01581 µM)	relative viability ([2]; first compound 0.05 µM)	relative viability ([2]; first compound 0.1581 µM)	relative viability ([2]; first compound 0.5 µM)	relative viability ([3]; first compound 0.02 µM)	relative viability ([3]; first compound 0.06325 µM)	relative viability ([3]; first compound 0.2 µM)	relative viability ([3]; first compound 2 µM)	relative viability ([4]; first compound 0.01 µM)	relative viability ([4]; first compound 0.03162 µM)	relative viability ([4]; first compound 0.1 µM)	relative viability ([4]; first compound 0.3162 µM)	relative viability ([4]; first compound 1 µM)	relative viability ([3]; first compound 0.6325 µM)
201T	0.79	0.829	0.796	0.791	0.817	0.799	0.523	0.599	0.549	0.486	0.69	0.664	0.719	0.672	1.05	0.93	0.978	1.05	0.781	–
A549	0.234	0.368	0.349	0.291	0.356	–	–	–	–	–	–	–	–	–	0.634	0.444	0.537	0.731	0.487	–
A-427	0.735	0.852	0.71	0.711	0.694	0.66	0.743	0.764	0.688	0.822	0.542	0.486	0.53	0.432	1.09	1.05	1.05	1.11	1.05	0.481
ABC-1	0.538	0.617	0.774	0.904	0.726	0.634	0.459	0.631	0.573	0.397	0.43	0.464	0.488	0.254	0.816	0.778	0.601	0.567	0.303	0.479
BEN	1.21	1.02	1.03	1.04	1.08	0.229	0.323	0.326	0.479	0.425	0.247	0.302	0.292	0.282	1.04	0.719	1.12	0.824	0.628	0.285
CAL-12T	0.663	0.692	0.765	0.676	0.65	0.236	0.308	0.341	0.508	0.242	0.701	0.655	0.541	0.291	0.914	0.7	0.777	0.924	0.656	0.626
COR-L23	0.327	0.343	0.379	0.379	0.347	0.427	0.516	0.499	0.581	0.489	0.731	0.671	0.736	0.789	1.25	0.898	0.956	0.736	0.252	0.684
COR-L 105	0.639	0.606	0.756	0.67	0.811	0.344	0.297	0.34	0.303	0.29	0.629	0.641	0.507	0.329	1.08	0.934	0.921	0.874	0.396	0.411
Calu-6	0.526	0.552	0.579	0.572	0.563	–	–	–	–	–	–	–	–	–	0.989	0.897	1.04	1.01	0.869	–
ChaGo-K-1	0.415	0.427	0.161	0.411	0.438	–	0.567	0.577	0.681	0.545	0.532	0.54	0.515	0.591	–	–	–	–	–	0.602
EBC-1	0.698	0.603	0.69	0.782	0.693	–	–	–	–	–	–	–	–	–	0.954	0.904	0.766	0.762	0.623	–
EKVX	0.854	0.761	0.904	0.813	0.563	0.464	0.473	0.523	0.473	0.547	0.741	0.693	0.723	0.563	1.17	0.84	0.938	1.07	0.709	0.67
EMC-BAC-2	0.509	0.478	0.498	0.492	0.531	0.334	0.359	0.364	0.388	0.324	0.382	0.358	0.318	0.38	0.845	0.867	0.852	0.765	0.634	0.381
EPLC-272H	0.969	0.526	1.19	0.854	0.49	0.283	0.304	0.264	0.374	0.312	0.319	–	0.305	0.265	1.25	1.1	1.16	1.05	1.08	0.286
H3255	0.516	0.518	0.594	0.509	0.27	0.312	0.329	0.346	0.509	0.319	0.655	0.459	0.455	0.227	1.02	0.751	0.38	0.5	0.203	0.417
HARA	0.624	0.821	0.681	0.867	0.883	0.355	0.281	0.246	0.235	0.372	0.542	0.299	0.466	0.483	1.01	0.804	0.908	0.512	0.349	0.525
HCC-15	0.72	0.677	0.782	0.713	0.722	0.569	0.578	0.564	0.703	0.508	0.75	0.638	0.668	0.537	0.786	0.853	0.857	0.954	0.743	0.682
HCC-44	0.914	0.944	0.948	0.973	1	–	–	–	–	–	0.434	0.49	0.574	0.427	0.549	0.617	0.678	0.675	0.555	0.439
HCC-78	0.823	0.756	0.748	0.913	0.703	0.386	0.337	0.42	0.609	0.407	0.374	0.39	0.42	0.361	0.438	0.387	0.707	0.42	0.27	0.364

Cell Line	relative viability ([1]; first compound 0.02 µM)	relative viability ([1]; first compound 0.06325 µM)	relative viability ([1]; first compound 0.2 µM)	relative viability ([1]; first compound 0.6325 µM)	relative viability ([1]; first compound 2 µM)	relative viability ([2]; first compound 0.005 µM)	relative viability ([2]; first compound 0.01581 µM)	relative viability ([2]; first compound 0.05 µM)	relative viability ([2]; first compound 0.1581 µM)	relative viability ([2]; first compound 0.5 µM)	relative viability ([3]; first compound 0.02 µM)	relative viability ([3]; first compound 0.06325 µM)	relative viability ([3]; first compound 0.2 µM)	relative viability ([3]; first compound 2 µM)	relative viability ([4]; first compound 0.01 µM)	relative viability ([4]; first compound 0.03162 µM)	relative viability ([4]; first compound 0.1 µM)	relative viability ([4]; first compound 0.3162 µM)	relative viability ([4]; first compound 1 µM)	relative viability ([3]; first compound 0.6325 µM)
HCC-366	0.438	0.34	0.389	0.362	0.31	0.591	0.848	0.539	0.824	0.676	0.807	0.876	0.978	0.948	0.658	0.344	0.741	0.607	0.528	0.824
HCC-827	0.629	0.653	0.627	0.309	0.152	0.331	0.301	0.336	0.307	0.284	0.895	0.752	0.707	0.149	0.965	0.537	0.257	0.203	0.205	0.164
HOP-62	0.51	0.397	0.265	0.373	0.447	0.496	0.59	0.685	0.807	0.565	0.789	0.739	0.815	0.846	1.06	0.992	0.842	0.853	0.596	0.903
IA-LM	0.969	0.874	0.864	0.867	0.849	–	–	–	–	–	–	–	–	–	0.676	0.665	0.365	0.544	0.548	–
LC-2-ad	0.673	0.711	0.695	0.792	0.714	0.542	0.398	0.55	0.525	0.396	0.848	0.761	0.777	0.446	0.86	0.846	0.882	0.802	0.472	0.675
LCLC-97TM1	0.374	0.377	0.357	0.352	0.343	0.735	0.923	1.03	0.99	0.792	0.669	0.324	0.514	0.481	0.211	0.158	0.201	0.166	0.151	0.394
LCLC-103H	0.729	0.657	0.529	0.698	0.707	0.415	0.456	0.473	0.507	0.312	0.428	0.44	0.438	0.448	1.12	1.11	1.11	1.11	1.15	0.423
LK-2	0.846	0.71	0.724	0.72	0.669	0.393	0.264	0.243	0.26	0.311	0.243	0.213	0.203	0.227	0.464	0.561	0.614	0.472	0.25	0.197
LOU-NH91	0.901	0.788	0.813	0.732	0.679	0.501	0.567	0.509	0.58	0.471	0.76	0.604	0.599	0.515	0.978	0.634	0.564	0.599	0.453	0.502
NCI-H522	0.604	0.703	0.689	0.743	0.605	0.873	0.822	0.884	1.05	0.935	0.77	0.727	0.772	0.61	–	–	–	–	–	0.674
NCI-H1299	0.983	0.928	0.924	0.933	0.981	–	–	–	–	–	–	–	–	–	0.905	0.99	0.936	0.994	0.973	–
NCI-H1563	–	–	–	–	–	0.536	0.413	0.426	0.44	0.473	0.79	0.8	0.743	0.734	1.22	1.06	1.4	1.18	1.11	0.76
NCI-H1623	–	–	–	–	–	0.476	0.476	0.514	0.612	0.591	0.479	0.439	0.454	0.455	–	–	–	–	–	0.398
NCI-H1648	0.591	0.771	0.91	1.15	0.761	–	–	–	–	–	0.253	0.276	0.28	0.252	–	–	–	–	–	0.258
NCI-H1650	0.753	0.827	0.756	0.792	0.572	0.449	0.278	0.324	0.372	0.263	0.621	0.436	0.552	0.439	–	–	–	–	–	0.452
NCI-H1703	0.458	0.267	0.385	0.342	0.303	–	–	–	–	–	–	–	–	–	–	0.559	0.636	1.15	0.745	–
NCI-H2170	0.639	0.615	0.546	0.609	0.663	0.447	0.498	0.501	0.675	0.611	0.641	0.673	0.727	0.811	–	–	–	–	–	0.655
NCI-H2342	0.482	0.41	0.477	0.415	0.438	0.32	0.314	0.349	0.328	0.337	0.616	0.597	0.644	0.591	–	–	–	–	–	0.669
SW 900	0.804	0.784	–	0.88	0.815	0.625	0.53	0.564	0.844	0.543	0.456	0.486	0.315	0.713	–	–	–	–	–	0.622

From the supplement of paper PMC10307832
